Measurements from PMC6285983, “Novel broad spectrum virucidal molecules against enveloped viruses” (PLoS ONE, 2018).

Legend:
[1] = test system: HSV-2; experiment: HSV-2 plaquing efficiency assay, compound preincubated with virus 1 h at 37°C; format: cell-based; details: Human alphaherpesvirus 2, HSV-2, Vero cells, 1 h pre-incubation virus/compound; for EC50: plaques at 24 h, read-out: EC50 (95% C.I.); for EC90: read-out: EC90 (95% C.I.)
[2] = Cell viability MTS assay on Vero cells; details: African green monkey, CC50, Vero cells, MTS
[3] = in vitro; details: African green monkey
[4] = test system: HSV-2 acyclovir resistant strain; experiment: microbe, parasite or virus in culture; format: cell-based; details: Human alphaherpesvirus 2
[5] = In vitro lipoperoxidation test (TBA assay, MDA); details: 0.05% w/w added to liposomes, exposure to compound 9d

Compound | EC50 [1] [nM] | EC90 [1] [nM] | melting point | CC50 [2] [nM] | CC50 [3] [nM] | EC50 [4] [nM] | reduction of the peroxidation of linoleic acid [5] [%]
O=C(O)c1ccc(-c2ccc(/C=C3\SC(=S)N(CCc4c[nH]c5ccccc45)C3=O)o2)cc1O [Compound 9a, (Z)-4-(5-((3-(2-(1H-Indol-3-yl)ethyl)-4-oxo-2-thioxothiazolidin-5-ylidene)methyl)furan-2-yl)-2-hydroxybenzoic acid] | 630 | 2050 | 254 °C (dec.) | 291000 | – | – | –
O=C(O)c1ccc(-c2ccc(/C=C3\SC(=S)N(CCc4ccc(Br)cc4)C3=O)o2)cc1O [Compound 9b, (Z)-4-(5-((3-(4-bromophenethyl)-4-oxo-2-thio-oxothiazolidin-5-ylidene)methyl)furan-2-yl)-2-hydroxybenzoic acid] | 120 | 404 | 275 °C (dec.) | 13500 | – | – | –
COc1ccc(CCN2C(=O)/C(=C/c3ccc(-c4ccc(C(=O)O)c(O)c4)o3)SC2=S)cc1 [Compound 9c, (Z)-2-hydroxy-4-(5-((3-(4-methoxyphenethyl)-4-oxo-2-thioxothiazolidin-5-ylidene)methyl)furan-2-yl)benzoic acid] | 60 | 145 | 265 °C (dec.) | 9870 | – | – | –
O=C1/C(=C/c2ccc(-c3cc(C(F)(F)F)ccc3Cl)o2)SC(=S)N1Cc1ccc(F)cc1 [Compound 9e, (Z)-5-((5-(2-chloro-5-(trifluoromethyl)phenyl)furan-2-yl)methylene)-3-(4-fluorobenzyl)-2-thioxothiazolidin-4-one] | 767 | 5740 | – | > 300000 | – | – | –
O=C1NC(=S)N(Cc2ccccc2)C(=O)/C1=C\c1ccc(-c2ccc(C(=O)O)c(O)c2)o1 [Compound 15a, (Z)-4-(5-((1-benzyl-4,6-dioxo-2-thioxotetrahydropyrimidin-5(2H)-ylidene)methyl)furan-2-yl)-2-hydroxybenzoic acid] | 1030 | 57000 | – | – | > 300000 | – | –
O=C1NC(=S)N(CCc2ccccc2)C(=O)/C1=C\c1ccc(-c2ccc(C(=O)O)c(O)c2)o1 [Compound 15b, (Z)-4-(5-((4,6-dioxo-1-phenethyl-2-thioxotetrahydropyrimidin-5(2H)-ylidene)methyl)furan-2-yl)-2-hydroxybenzoic acid] | 48.4 | 10900 | – | – | > 300000 | – | –
Nc1nc2c(ncn2COCCO)c(=O)[nH]1 [acyclovir, reference compound] | – | – | – | – | – | 319000 | –
(±)-α-tocopherol [reference compound] | – | – | – | – | – | – | 50.5
